Data from patent US20260072030A1, “RAS BIOSENSORS” (The Regents of the University of California, priority 2022, published 2026).

Experiments:
Format in all cases: cell-based
EGFR = experiment: Reversal of EGF-induced RasAR response by EGFR inhibitor; conditions: RasAR + mCherry-KRasWT, 100 ng/ml EGF followed by 200 nM AG1478
From the text: To determine whether RasAR can detect dynamic Ras activity, we co-expressed the sensor with mCherry-KRasWT in COS-7 cells and stimulated the cells with epidermal growth factor (EGF). […] Consistent with previous studies,26 we observed higher C/Y emission ratios in membrane ruffles following EGF stimulation, indicating enhanced KRas activity in these regions. In addition, consistent with the Golgi localization of Ras,26 we observed an increased activity in the Golgi compartment (FIGS. 2A and 8). […] The EGF-stimulated increases in the emission ratio occurred in both the membrane ruffles as well as the Golgi compartment (FIGS. 2B-2C and 8), with slower kinetics observed at the Golgi (FIG. 7A).
Cells were washed three times with Hanks's balanced salt solution (HBSS, Gibco) prior to imaging. Cells were imaged in HBSS in the dark at 37° C. […] Cells were imaged on a Zeiss Axio Observer Z1 microscope equipped with a 20×/0.8 NA objective and a Hamamatsu Flash 4.0 sCMOS camera, controlled using MicroManager 2.0 software. […] All fluorescence images were background-correcting by rolling circle background subtraction in ImageJ using a rolling-ball circle radius of 350 pixels. Cyan/yellow or yellow/cyan emission ratios were then calculated by dividing the CFP channel values by the CYFRET channel values, or the CYFRET channel values by CFP channel values, respectively. […]

KRasG12C = target: T1, KRasG12C (Homo sapiens, UniProt P01116, G12C)
T1 construct: expressed in transfected cells; host or cells: COS-7

KRasWT = target: T2, KRasWT (Homo sapiens, UniProt P01116); experiment: Live-cell Ras inhibitor assay, COS-7 cells co-expressing RasAR and KRasWT control; conditions: KRasWT controls, 10 μM, 24 hr, vs DMSO
T2 construct: host or cells: COS-7

ERK = ERK activity reporter (EKAR4) Y/C emission ratio in COS-7 cells; conditions: 10 μM, 3 hr
mCherry-KRasG12C = experiment: Ras expression assessed by RFP intensity in COS-7 cells
Src = Src inhibitor pretreatment, EGF-induced HRas activity measured with RasAR sensors in COS-7 cells; conditions: for effect of pretreatment on EGF-induced response, cytosolic RasAR: RasAR + HRasWT, 1 μM inhibitor
From the text: To clarify the regulatory role of Src on HRas at the Golgi, we monitored HRas activity at the Golgi with GA-RasAR in the presence of Src inhibitor PP2.
Phosphorylation of residue Y32 has been implicated in the negative regulation of HRas by Src.31 To verify this mechanism of Src inhibition we co-expressed RasAR with HRasY32F and stimulated with EGF. […] KRas was recently shown to be negatively regulated by Src via dual phosphorylation of Y32 and Y64,28 which negatively impacts multiple steps of the GTPase cycle and impairs binding to effectors. However, the role of Y64 in HRas has not been investigated. To test the hypothesis that phosphorylation of both Y32 and Y64 is involved in Src regulation of HRas, we expressed RasAR and an mCherry-labeled HRas mutant containing Y32F/Y64F mutations and monitored EGF-induced responses in the presence and absence of PP2.
Cells were washed three times with Hanks's balanced salt solution (HBSS, Gibco) prior to imaging. Cells were imaged in HBSS in the dark at 37° C. […] Cells were imaged on a Zeiss Axio Observer Z1 microscope equipped with a 20×/0.8 NA objective and a Hamamatsu Flash 4.0 sCMOS camera, controlled using MicroManager 2.0 software. For time series, images from multiple fields of view were acquired at each time point at 30 sec intervals. RFP was imaged using a 568DF55 excitation filter, a 600DRLP dichroic mirror, and a 653DF95 emission filter. CFP was imaged using a 420DF20 excitation filter, a 455DRLP dichroic mirror, and a 470DF40 emission filter. CYFRET was imaged using a 420DF20 excitation filter, a 455DRLP dichroic mirror, and a 535DF25 emission filter. YFP was imaged using a 495DF10 excitation filter, a 515DRLP dichroic mirror, and a 535DF25 emission filter. Exposure times for each channel were 250-500 ms. All filter sets were controlled by a Lambda 10-2 filter-changer (Sutter Instruments). All fluorescence images were background-correcting by rolling circle background subtraction in ImageJ using a rolling-ball circle radius of 350 pixels. Cyan/yellow or yellow/cyan emission ratios were then calculated by dividing the CFP channel values by the CYFRET channel values, or the CYFRET channel values by CFP channel values, respectively. For the time-series analysis, all values were normalized to the time point prior to drug addition by dividing each value by basal ratio value prior to drug addition. Co-expression experiments were processed using Cell Profiler on background subtracted images and segmented using CYFRET channel images. Individual t½ measurements were acquired using custom script within Matlab.

SMILES: COc1cc2ncnc(Nc3cccc(Cl)c3)c2cc1OC [AG1478]
- effect on C/Y emission ratio after EGF stimulation (EGFR): decrease in the C/Y emission ratio

SMILES: C=CC(=O)N1CCN(c2ncnc3c(F)c(-c4c(O)cccc4F)c(Cl)cc23)CC1 [ARS1620]
- time over which the C/Y emission ratio continuously declines after treatment (KRasG12C; 10 μM inhibitor): 5 h
- concentration dependence of C/Y emission ratio (KRasG12C; 10 μM, 3 μM, 1 μM, 0.3 μM, 0.1 μM, 24 hr): dose-dependent inhibition of KRasG12C
- effect on RasAR C/Y emission ratio (KRasG12C; 10 μM, 24 hr, vs DMSO): higher C/Y emission ratio in KRasG12C-expressing cells treated with DMSO compared with ARS1620 treatment
- effect on RasAR C/Y emission ratio (KRasWT): no effect of inhibitor treatment
- Cohen's d, effect of treatment on EKAR4 Y/C emission ratio (ERK; mCherry-KRasG12C expressing COS-7 cells): 0.84
- Cohen's d, effect of treatment on EKAR4 Y/C emission ratio (ERK; mCherry-KRasWT expressing COS-7 cells): 0.02
- Cohen's f, RFP intensities across titration treatment groups (mCherry-KRasG12C; ARS1620 titration experiment, 24 hr): 0.06

SMILES: CC(C)(C)n1nc(-c2ccc(Cl)cc2)c2c(N)ncnc21 [PP2]
- effect of pretreatment on EGF-induced response at the Golgi (Src; GA-RasAR + mCherry-HRas, vs DMSO, n=300 cells each): enhanced
- effect of pretreatment on EGF-induced response, cytosolic RasAR (Src; vs DMSO): larger EGF-induced response
- effect of pretreatment on EGF-induced response, HRasY32F (Src; RasAR + mCherry-HRasY32F, PP2 1 μM, vs control cells): enhanced response to EGF
- effect of pretreatment on EGF-induced response, HRas Y32F/Y64F (Src; RasAR + mCherry-HRasY32F/Y64F, vs control cells, n=180 cells each): no significant difference
- effect of pretreatment on EGF-induced Ras activity at the plasma membrane (Src; pm-RasAR + mCherry-HRasWT, vs DMSO): did not affect EGF-induced Ras activity

SMILES: COc1cc2ncnc(Nc3ccc(Oc4ccccc4)cc3)c2cc1OC [SrcI1]
- effect of pretreatment on EGF-induced response, cytosolic RasAR (Src; vs DMSO): enhanced EGF-induced Ras activity

SMILES: C[C@@H]1C[C@@H]([C@H](O)CC2CC(=O)NC(=O)C2)C(=O)[C@@H](C)C1 [cycloheximide]
- effect of inhibiting protein re-synthesis on kinetics of Ras inactivation by ARS1620 (KRasG12C; ARS1620 10 μM with cycloheximide 100 μg/ml): did not speed up the kinetics of Ras inactivation
- effect on KRasG12C expression levels (mCherry-KRasG12C; 24-hr timeframe): reduced KRasG12C expression levels
- Cohen's d, RFP intensities with and without cycloheximide (mCherry-KRasG12C; ARS1620 10 μM, cycloheximide 100 μg/ml): 0.36
- Cohen's f, effect of treatment on mCherry-KRasG12C expression by RFP intensity (mCherry-KRasG12C; cycloheximide treatment 24 hr): 1.26
